Results taken from patent US4966900A, “Cephalosporin β-lactam compound and medicinal composition” (priority 1986, dated 1990).
Values after ≈ are worked out from the molar mass of the structure shown.

What was measured:
Experiment in all cases: MIC
S. marcescens GN10857 = details: Serratia marcescens, GN10857, S. marcescens GN10857; Table 7
E. cloacae 908RN = details: Enterobacter cloacae, E. colacae 908RN, Table 7
C. freundii 1U589 = details: Citrobacter freundii, 1U589
P. cepacia OF189 = details: Burkholderia cepacia, OF189, P. cepacia OF189; Table 7
E. cloacae 5D63-2 = details: Enterobacter cloacae, 5D632
P. aeruginosa 5D58-1 = details: Pseudomonas aeruginosa, 5D581, P. aeruginosa 5D58-1; Table 7
C. freundii 1R523 = details: Citrobacter freundii, 1R523
E. cloacae 5D52-2 = details: Enterobacter cloacae, 5D522
C. freundii GN7391 = details: Citrobacter freundii, GN7391, C. freundii GN7391; Table 7
C. freundii 1U692 = details: Citrobacter freundii, 1U692
P. aeruginosa 4au542 = details: Pseudomonas aeruginosa, 4AU542, P. aeruginosa 4au542; Table 7
C. freundii 1R527 = details: Citrobacter freundii, 1R527
C. freundii 1R524 = details: Citrobacter freundii, 1R524
C. freundii 5D60-1 = details: Citrobacter freundii, 5D601
E. coli GN5482 = details: Escherichia coli, GN5482, E. coli GN5482; Table 7
E. coli ML4707 = details: Escherichia coli, ML4707, E. coli ML4707; Table 7
C. freundii 1R526 = details: Citrobacter freundii, 1R526
S. aureus Smith = details: Staphylococcus aureus, Table 7
K. pneumoniae 4at521 = details: Klebsiella pneumoniae, 4AT521
P. maltophilia OF247 = details: Stenotrophomonas maltophilia, Table 7
S. aureus IAA498 = format: cell-based; details: Staphylococcus aureus, Table 7
Protocol: (§1) The minimum inhibition concentrations (MIC) of the compounds obtained in the respective examples described above were measured according to the standard method of Japanese Chemotherapy Association.

E. cloacae 1V247 = format: cell-based; details: Enterobacter cloacae, Table 8
Protocol: as §1

P. vulgaris GN7919 = details: Proteus vulgaris, GN7919
E. cloacae 1V25 = details: Enterobacter cloacae
P. aeruginosa GN10362 = details: Pseudomonas aeruginosa, GN10362
E. colacae GN7471 = details: Table 7

Structure (SMILES) | MIC (S. marcescens GN10857) | MIC (E. cloacae 908RN) | MIC (C. freundii 1U589) | MIC (P. cepacia OF189) | MIC (E. cloacae 5D63-2) | MIC (P. aeruginosa 5D58-1) | MIC (C. freundii 1R523) | MIC (E. cloacae 5D52-2) | MIC (C. freundii GN7391) | MIC (C. freundii 1U692) | MIC (P. aeruginosa 4au542) | MIC (C. freundii 1R527) | MIC (C. freundii 1R524) | MIC (C. freundii 5D60-1) | MIC (E. coli GN5482) | MIC (E. coli ML4707) | MIC (C. freundii 1R526) | MIC (S. aureus Smith) | MIC (K. pneumoniae 4at521) | MIC (P. maltophilia OF247) | also measured
CC(=O)Oc1ccc(C(=O)NNC(=O)C(C)(C)ON=C(C(=O)NC2C(=O)N3C(C(=O)O)=C(CSc4cc(C)nc5nc(C(=O)O)nn45)CS[C@H]23)c2csc(N)n2)cc1OC(C)=O (stereo partly drawn) [Example 45, 7-{2-[2-Amino-1,3-thiazol-4-yl]-2-[1-(3-(3,4-diacetoxybenzoyl)carbazoyl)-1-methylethoxyimino]acetamido}-3-[(2-carboxy-5-methyl-s-triazolo[1,5-a]pyrimidin-7-yl)thiomethyl]-3-cephem-4-carboxylic acid] | 1.56 µg/mL (≈ 1.71 µM) | 1.56 µg/mL (≈ 1.71 µM) | 3.13 µg/mL (≈ 3.43 µM) | 0.012 µg/mL (≈ 0.0132 µM) | 0.78 µg/mL (≈ 0.855 µM) | 0.1 µg/mL (≈ 0.11 µM) | 0.78 µg/mL (≈ 0.855 µM) | 0.39 µg/mL (≈ 0.428 µM) | 12.5 µg/mL (≈ 13.7 µM) | 1.56 µg/mL (≈ 1.71 µM) | 0.2 µg/mL (≈ 0.219 µM) | 3.13 µg/mL (≈ 3.43 µM) | 0.78 µg/mL (≈ 0.855 µM) | 3.13 µg/mL (≈ 3.43 µM) | 0.05 µg/mL (≈ 0.0548 µM) | 0.05 µg/mL (≈ 0.0548 µM) | 1.56 µg/mL (≈ 1.71 µM) | 12.5 µg/mL (≈ 13.7 µM) | 0.05 µg/mL (≈ 0.0548 µM) | 1.56 µg/mL (≈ 1.71 µM) | MIC (S. aureus IAA498): 25 µg/mL (≈ 27.4 µM); MIC (E. cloacae 1V247): 6.25 µg/mL (≈ 6.85 µM); MIC (P. vulgaris GN7919): 3.13 µg/mL (≈ 3.43 µM); MIC (E. cloacae 1V25): 6.25 µg/mL (≈ 6.85 µM); MIC (P. aeruginosa GN10362): 0.2 µg/mL (≈ 0.219 µM); MIC (E. colacae GN7471): 1.56 µg/mL (≈ 1.71 µM)
CC(=O)Oc1ccc(C(=O)NNC(=O)C(C)(C)ON=C(C(=O)NC2C(=O)N3C(C(=O)O)=C(CSc4ccnc5nc(C(=O)O)nn45)CS[C@H]23)c2csc(N)n2)cc1OC(C)=O (stereo partly drawn) [Example 46, 7-{2-[2-Amino-1,3-thiazol-4-yl]-2-[1-(3-(3,4-diacetoxybenzoyl)carbazoyl)-1-methylethoxyimino]acetamido}-3-[(2-carboxy-s-triazolo[1,5-a]pyrimidin-7-yl)thiomethyl]-3-cephem-4-carboxylic acid] | 0.78 µg/mL (≈ 0.869 µM) | 12.5 µg/mL (≈ 13.9 µM) | 6.25 µg/mL (≈ 6.96 µM) | < 0.006 µg/mL | 5.25 µg/mL (≈ 5.85 µM) | 0.2 µg/mL (≈ 0.223 µM) | 3.13 µg/mL (≈ 3.49 µM) | 0.39 µg/mL (≈ 0.434 µM) | 100 µg/mL (≈ 111 µM) | 6.25 µg/mL (≈ 6.96 µM) | 0.39 µg/mL (≈ 0.434 µM) | 3.13 µg/mL (≈ 3.49 µM) | 3.13 µg/mL (≈ 3.49 µM) | 12.5 µg/mL (≈ 13.9 µM) | 0.05 µg/mL (≈ 0.0557 µM) | 0.05 µg/mL (≈ 0.0557 µM) | 3.13 µg/mL (≈ 3.49 µM) | 12.5 µg/mL (≈ 13.9 µM) | 0.025 µg/mL (≈ 0.0278 µM) | 0.78 µg/mL (≈ 0.869 µM) | MIC (S. aureus IAA498): 25 µg/mL (≈ 27.8 µM); MIC (E. cloacae 1V247): 25 µg/mL (≈ 27.8 µM); MIC (P. vulgaris GN7919): 12.5 µg/mL (≈ 13.9 µM); MIC (E. cloacae 1V25): 25 µg/mL (≈ 27.8 µM); MIC (P. aeruginosa GN10362): 0.2 µg/mL (≈ 0.223 µM); MIC (E. colacae GN7471): 0.78 µg/mL (≈ 0.869 µM)
CC(=O)Oc1ccc(C(=O)NNC(=O)C(C)(C)ON=C(C(=O)NC2C(=O)N3C(C(=O)O)=C(CSc4c(C)c(C)nc5c(C(=O)O)cnn45)CS[C@H]23)c2csc(N)n2)cc1OC(C)=O (stereo partly drawn) [Example 47, 7-{2-[2-Amino-1,3-thiazol-4-yl]-2-[1-(3-(3,4-diacetoxybenzoyl)carbazoyl)-1-methylethoxyimino]acetamido}-3-[(3-carboxy-5,6-dimethylpyrazolo[1,5-a]pyrimidin-7-yl)thiomethyl]-3-cephem-4-carboxylic acid] | 0.39 µg/mL (≈ 0.422 µM) | 0.78 µg/mL (≈ 0.843 µM) | 1.56 µg/mL (≈ 1.69 µM) | < 0.006 µg/mL | 0.39 µg/mL (≈ 0.422 µM) | 0.39 µg/mL (≈ 0.422 µM) | 0.39 µg/mL (≈ 0.422 µM) | 0.2 µg/mL (≈ 0.216 µM) | 1.56 µg/mL (≈ 1.69 µM) | 0.39 µg/mL (≈ 0.422 µM) | 0.78 µg/mL (≈ 0.843 µM) | 0.78 µg/mL (≈ 0.843 µM) | 0.39 µg/mL (≈ 0.422 µM) | 0.78 µg/mL (≈ 0.843 µM) | 0.025 µg/mL (≈ 0.027 µM) | 0.025 µg/mL (≈ 0.027 µM) | 0.39 µg/mL (≈ 0.422 µM) | 25 µg/mL (≈ 27 µM) | 0.025 µg/mL (≈ 0.027 µM) | 0.78 µg/mL (≈ 0.843 µM) | MIC (S. aureus IAA498): 50 µg/mL (≈ 54.1 µM); MIC (E. cloacae 1V247): 3.13 µg/mL (≈ 3.38 µM); MIC (P. vulgaris GN7919): 6.26 µg/mL (≈ 6.77 µM); MIC (E. cloacae 1V25): 3.13 µg/mL (≈ 3.38 µM); MIC (P. aeruginosa GN10362): 0.39 µg/mL (≈ 0.422 µM); MIC (E. colacae GN7471): 0.39 µg/mL (≈ 0.422 µM)
